ChEMBL document CHEMBL1201862, “PubChem BioAssay data set” (2004)
Activity calls are given as the source filed them.

Assays:
[1] = microbe, parasite or virus in culture; type: functional; conditions: Mycobacterium tuberculosis
[2] = molecular target: T1, Calpain-2 catalytic subunit (Sus scrofa, UniProt P43367); experiment: m-calpain protease blockers, concentration series – biochemical, fluorogenic peptide substrate, dose response (AID 1420); type: functional
T1 sequence (P43367 whole entry): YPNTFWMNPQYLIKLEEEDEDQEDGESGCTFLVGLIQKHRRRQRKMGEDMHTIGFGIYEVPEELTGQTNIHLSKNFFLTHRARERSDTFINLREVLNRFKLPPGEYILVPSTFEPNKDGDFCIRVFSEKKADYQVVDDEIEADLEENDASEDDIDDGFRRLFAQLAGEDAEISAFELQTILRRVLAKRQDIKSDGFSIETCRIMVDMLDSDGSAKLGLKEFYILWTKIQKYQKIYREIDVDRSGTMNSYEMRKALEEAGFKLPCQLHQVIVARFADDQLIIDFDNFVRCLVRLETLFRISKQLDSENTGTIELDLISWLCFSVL

Prothrombin = Prothrombin (Homo sapiens, UniProt P00734); experiment: Thrombin 1536 HTS Dose Response Confirmation. [Related pubchem assays: 1046 (Thrombin 1536 HTS; hits were confirmed in this assay)]; type: functional
Cytochrome P450 2C9 = Cytochrome P450 2C9 (Homo sapiens, UniProt P11712)
Protein RecA = molecular target: T2, Protein RecA (Mycobacterium tuberculosis, UniProt P9WHJ3); experiment: Fluorescence Cell-Free Homogeneous Dose Retest to Identify Inhibitors of RecA-Intein Splicing Activity. [Related pubchem assays (depositor defined):AID2097, AID2223, AID489010, AID492950]; type: functional
T2 sequence (P9WHJ3 whole entry): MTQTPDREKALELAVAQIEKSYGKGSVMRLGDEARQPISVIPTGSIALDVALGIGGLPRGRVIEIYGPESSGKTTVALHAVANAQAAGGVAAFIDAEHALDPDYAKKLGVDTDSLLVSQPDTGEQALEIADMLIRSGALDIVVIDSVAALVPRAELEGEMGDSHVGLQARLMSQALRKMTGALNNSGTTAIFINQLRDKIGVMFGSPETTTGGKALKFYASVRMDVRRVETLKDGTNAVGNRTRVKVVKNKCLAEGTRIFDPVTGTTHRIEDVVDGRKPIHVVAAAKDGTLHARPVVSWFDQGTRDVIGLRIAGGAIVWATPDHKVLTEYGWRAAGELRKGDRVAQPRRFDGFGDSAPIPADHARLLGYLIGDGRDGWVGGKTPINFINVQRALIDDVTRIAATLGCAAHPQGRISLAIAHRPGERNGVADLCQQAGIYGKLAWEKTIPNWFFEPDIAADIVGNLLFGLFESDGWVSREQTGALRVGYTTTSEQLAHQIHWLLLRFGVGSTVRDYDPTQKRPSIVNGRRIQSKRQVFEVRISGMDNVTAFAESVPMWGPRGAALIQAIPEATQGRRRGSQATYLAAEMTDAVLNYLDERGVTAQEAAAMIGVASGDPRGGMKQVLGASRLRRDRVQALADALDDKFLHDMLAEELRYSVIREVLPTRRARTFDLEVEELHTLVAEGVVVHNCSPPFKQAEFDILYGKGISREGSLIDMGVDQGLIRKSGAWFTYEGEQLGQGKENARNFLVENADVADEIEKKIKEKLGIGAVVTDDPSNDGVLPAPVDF

[3] = molecular target: T3, Replicative DNA helicase DnaB (Mycobacterium tuberculosis, UniProt P9WMR3); experiment: DnaB intein splicing inhibitors, dose response, biochemical, cell-free fluorescence (AID 449749); type: functional
T3 sequence (P9WMR3 whole entry): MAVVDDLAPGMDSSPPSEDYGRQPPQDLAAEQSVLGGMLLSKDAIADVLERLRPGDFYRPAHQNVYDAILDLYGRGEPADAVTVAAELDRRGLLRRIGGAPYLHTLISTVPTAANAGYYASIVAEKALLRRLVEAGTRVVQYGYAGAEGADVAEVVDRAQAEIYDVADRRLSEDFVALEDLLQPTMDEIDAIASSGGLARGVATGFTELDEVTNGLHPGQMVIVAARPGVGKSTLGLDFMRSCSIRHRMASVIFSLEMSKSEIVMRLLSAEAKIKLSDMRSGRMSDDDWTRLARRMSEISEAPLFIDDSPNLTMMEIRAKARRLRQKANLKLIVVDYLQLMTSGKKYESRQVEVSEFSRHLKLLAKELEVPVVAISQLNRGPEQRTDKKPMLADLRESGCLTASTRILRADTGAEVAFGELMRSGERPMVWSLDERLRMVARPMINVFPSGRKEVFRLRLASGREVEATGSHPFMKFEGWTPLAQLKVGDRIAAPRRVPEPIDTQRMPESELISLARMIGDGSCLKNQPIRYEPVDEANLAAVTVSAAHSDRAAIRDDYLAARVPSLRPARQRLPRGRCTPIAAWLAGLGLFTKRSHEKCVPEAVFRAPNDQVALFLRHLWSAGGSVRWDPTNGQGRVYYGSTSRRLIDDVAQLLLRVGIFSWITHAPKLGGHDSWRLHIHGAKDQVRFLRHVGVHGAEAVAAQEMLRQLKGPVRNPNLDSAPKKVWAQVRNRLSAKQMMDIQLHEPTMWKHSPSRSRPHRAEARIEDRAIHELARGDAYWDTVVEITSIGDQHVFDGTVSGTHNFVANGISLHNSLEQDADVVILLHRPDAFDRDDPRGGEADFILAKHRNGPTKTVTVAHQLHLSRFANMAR

[4] = Trypanosoma cruzi growth suppression in host cells – NIH3T3 host cells, beta-gal luminescence, confirmation (AID 2044); type: functional, cell-based;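 further: intracellular parasites grown in NIH/3T3 mouse fibroblasts as host cells; luminescent beta-galactosidase reporter signal from transgenic T. cruzi replicating inside host cells; inhibitors lower the luminescence signal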
[5] = NIH3T3 cell viability loss – ATP luminescence, mouse fibroblasts, counter-screen, dose response (AID 2010); type: functional, cell-based;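 further: cells exposed to compound for about 90 hours before reading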
[6] = viability of uninfected HEp-2 cells – cell-based, HTS, cytotoxicity control for RSV inhibitor project, dose response (AID 2410); type: functional; conditions: human respiratory syncytial virus
INS1 = experiment: INS-1E survival protection against cytokine death – cell-based, luminescence, retest, dose response (AID 449756); type: functional; conditions: Rattus norvegicus;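 further: cell death triggered by IL-1 beta plus TNF-alpha plus IFN-gamma mixture; protective hits raise ATP signal compared with cytokine alone wells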
[7] = tested on: Streptococcus sp. 'group A'; experiment: Streptococcus pyogenes SK(-)GAS viability under kanamycin – luminescence, BacTiterGlo, confirmation, counter-screen for streptokinase expression inhibitor project, dose response (AID 1900); type: functional, organism-based
Streptococcus = experiment: GAS UMAA2166 growth inhibition – luminescence, BacTiterGlo, counter-screen for streptokinase expression inhibitor project, dose response (AID 1915); type: functional, organism-based;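 further: potency for reduction of bacterial viability or growth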
[8] = HIV-1 AD8 envelope cell-cell fusion blockers – cherry-pick, dose response (AID 652062); type: functional, cell-based;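 further: luciferase signal from cell-cell fusion driven by HIV-1 clade B AD8 Env; potency is for inhibitors of fusion seen as a drop in luminescence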
[9] = off-target signal loss in HeLa-CEM21 co-culture – HeLa F-luc CTL cells, cherry-picked, counter-screen for HIV-1 Env fusion inhibitor project, dose response (AID 652040); type: functional, cell-based;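 further: potency for signal decrease marking cytotoxic or nonspecific inhibition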
[10] = blockers of HIV-1 ZM109 envelope-driven cell-cell fusion – HeLa effector, CEM target cells, luciferase, cherry-pick, dose response (AID 652058); type: functional, cell-based;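 further: luciferase signal from HIV-1 Env mediated cell-cell fusion of effector and target cells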
Cytochrome P450 1A2 = molecular target: T4, Cytochrome P450 1A2 (Homo sapiens, UniProt P05177);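 further: PubChem cytochrome P450 panel assay, CYP1A2 panel member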
T4 sequence (P05177 whole entry): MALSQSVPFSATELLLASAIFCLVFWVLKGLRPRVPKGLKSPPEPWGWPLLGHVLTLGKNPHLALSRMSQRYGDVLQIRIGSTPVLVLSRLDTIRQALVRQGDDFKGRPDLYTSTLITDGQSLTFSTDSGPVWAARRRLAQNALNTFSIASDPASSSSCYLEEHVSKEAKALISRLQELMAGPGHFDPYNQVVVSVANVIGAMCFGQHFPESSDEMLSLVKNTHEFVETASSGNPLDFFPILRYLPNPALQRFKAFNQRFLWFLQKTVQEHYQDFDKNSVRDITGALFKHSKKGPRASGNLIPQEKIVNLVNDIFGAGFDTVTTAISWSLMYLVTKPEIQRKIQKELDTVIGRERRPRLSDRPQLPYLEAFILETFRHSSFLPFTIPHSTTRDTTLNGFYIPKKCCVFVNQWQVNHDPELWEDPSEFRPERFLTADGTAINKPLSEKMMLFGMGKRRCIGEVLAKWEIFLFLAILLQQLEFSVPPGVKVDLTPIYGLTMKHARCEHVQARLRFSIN

[11] = blockers of HIV-1 envelope-mediated cell-cell fusion – cherry-pick, dose response (AID 652057); type: functional, cell-based
Estrogen receptor = molecular target: T5, Estrogen receptor (Homo sapiens, UniProt P03372);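 further: potency for inhibiting coactivator peptide recruitment to the receptor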
T5 sequence (P03372 whole entry): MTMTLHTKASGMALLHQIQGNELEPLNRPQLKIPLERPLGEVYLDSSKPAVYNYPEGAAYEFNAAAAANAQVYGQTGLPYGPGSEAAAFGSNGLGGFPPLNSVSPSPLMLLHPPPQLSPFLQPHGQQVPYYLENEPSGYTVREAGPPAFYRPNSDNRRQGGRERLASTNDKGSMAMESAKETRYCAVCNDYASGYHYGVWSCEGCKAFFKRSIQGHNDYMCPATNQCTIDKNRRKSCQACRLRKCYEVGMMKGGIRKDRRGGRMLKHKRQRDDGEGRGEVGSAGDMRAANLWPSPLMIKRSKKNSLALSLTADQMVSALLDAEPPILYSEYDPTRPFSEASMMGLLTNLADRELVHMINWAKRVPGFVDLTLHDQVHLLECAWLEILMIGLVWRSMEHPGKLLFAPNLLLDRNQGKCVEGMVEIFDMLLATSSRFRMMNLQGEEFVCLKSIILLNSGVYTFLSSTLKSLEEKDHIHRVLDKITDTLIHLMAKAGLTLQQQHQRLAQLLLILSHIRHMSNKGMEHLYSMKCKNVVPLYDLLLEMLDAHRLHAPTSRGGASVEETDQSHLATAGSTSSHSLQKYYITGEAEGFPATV

Chain of Cytochrome P450 2C9 (P11712 whole entry): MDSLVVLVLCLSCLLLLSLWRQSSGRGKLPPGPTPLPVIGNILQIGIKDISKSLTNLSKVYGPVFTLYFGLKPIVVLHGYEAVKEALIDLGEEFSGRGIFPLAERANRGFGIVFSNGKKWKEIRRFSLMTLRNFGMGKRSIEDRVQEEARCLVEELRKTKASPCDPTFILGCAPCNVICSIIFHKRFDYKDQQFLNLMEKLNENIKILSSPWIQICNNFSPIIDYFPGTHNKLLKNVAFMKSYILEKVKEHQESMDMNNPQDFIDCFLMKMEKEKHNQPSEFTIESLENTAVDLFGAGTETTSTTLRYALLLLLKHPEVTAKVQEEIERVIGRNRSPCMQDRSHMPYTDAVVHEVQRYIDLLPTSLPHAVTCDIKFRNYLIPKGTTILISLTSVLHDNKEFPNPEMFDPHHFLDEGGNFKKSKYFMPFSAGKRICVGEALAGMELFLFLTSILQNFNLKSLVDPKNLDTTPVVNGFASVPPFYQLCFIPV

CNC[C@H](Cc1cccc2ccccc12)NC[C@H](CCSC)NCC1CCC(C(C)(C)C)CC1 (stereo not given in full)
CC50 [1]: 25.4 µM (active)

COc1cccc(C(=O)N2c3ccccc3Sc3ccccc32)c1
IC50 [2]: 6.88 µM (not active)

O=c1c2c(-c3ccccc3)csc2ncn1/N=C/c1ccc(O)c([N+](=O)[O-])c1
IC50 [2]: 9.57 µM (not active)

COc1ccc2cc(C(=O)N3CCCCCC3)sc(=O)c2c1OC
IC50 [2]: 11.1 µM (active)

CCc1nc2ccccc2c(C(=O)OCC(=O)C(C)(C)C)c1C
IC50 (Prothrombin): > 50 µM (not active)

COc1ccccc1C(=O)n1nc(-c2ccco2)nc1N
IC50 (Prothrombin): 6.93 µM (active)

Cc1cccc(NS(=O)(=O)c2ccc(C(=O)N3CCN(c4ccccc4O)CC3)cc2)c1C
CC50 [1]: 36.6 µM (active)

C=CCn1c(SCc2c(C)noc2C)nc2cc(C(=O)O)ccc2c1=O
IC50 (Prothrombin): > 50 µM (not active)

Cn1c(N)c(C(=O)COC(=O)CCC2CCCC2)c(=O)n(C)c1=O
IC50 [2]: 15.5 µM (not active)

Cc1ccc(C(=O)O)cc1N1C(=O)c2cccc3cc(Br)cc(c23)C1=O
IC50 [2]: 7.36 µM (not active)
AC50 (Cytochrome P450 2C9): 15.8 µM (inconclusive)

Nc1nc(-c2ccco2)nn1C(=O)c1ccc(Cl)cc1
EC50 (Protein RecA): 55.4 µM (active)
AC50 [3]: 14 µM (active)
IC50 (Prothrombin): 1.46 µM (active)

CC(C)c1onc(C(=O)Nc2cccc(Cl)c2)c1[N+](=O)[O-]
IC50 [2]: 2.32 µM (not active)

CCC(C(=O)OCC(=O)Nc1ccc(SC(F)F)cc1)c1ccccc1 (stereo not given)
EC50 [4]: 1.68 µM (active)
EC50 [5]: > 60 µM (not active)
IC50 [2]: 7.17 µM (not active)
IC50 (Prothrombin): > 50 µM (not active)

CC(C)c1ccc(NC(S)=Nc2ccc3c[nH]nc3c2)cc1
CC50 [6]: 37.9 µM (active)
IC50 (Prothrombin): 2.49 µM (active)

CCC(CC)NC(=O)COC(=O)c1ccc(OCC(=O)Nc2ccccc2OC)c(OC)c1
IC50 [2]: 18.5 µM (not active)

N=C(NNC(=O)c1sccc1OCc1ccc(Cl)cc1Cl)c1ccccn1
AC50 (INS1): 5.2 µM (active)
EC50 [7]: 3.89 µM (active)
EC50 (Streptococcus): > 150 µM (not active)
CC50 [1]: 6.31 µM (active)

Cn1c(=O)n(-c2cccc(Cl)c2)c(=O)c2c3c(sc21)COC(C)(C)C3
AC50 [8]: 1.37 µM (active)
AC50 [9]: 6.71 µM (active)
AC50 [10]: 3.36 µM (active)
AC50 (Cytochrome P450 1A2): 14.1 µM (inconclusive)
AC50 [11]: 3.65 µM (active)

CCCc1cnc(NCCNCC(O)COc2ccc(Cl)c(Cl)c2)nc1 (stereo not given)
CC50 [1]: 22.1 µM (active)

COc1ccc([C@H]2/C=C\CN(C(=O)C3CC3)[C@@H](C)C(=O)N2Cc2ccc(F)cc2)cc1
AC50 [8]: 4.99 µM (active)
AC50 [9]: 7.85 µM (active)
AC50 [10]: 0.488 µM (active)
AC50 [11]: 4.42 µM (active)

COc1cc(NC(=O)c2cccs2)c(C(=O)OCC(=O)NCc2ccco2)cc1OC
IC50 (Estrogen receptor): 14.8 µM (active)
CC50 [1]: > 40 µM (active)

Cc1cc(C)cc(OCC(=O)NNC(=O)CN2C(=O)c3ccccc3C2=O)c1
IC50 (Prothrombin): > 50 µM (not active)

Cc1ccc(-c2csc3nc4c5ccccc5c(NCCCN5CCOCC5)nn4c(=O)c23)cc1
CC50 [1]: 13.6 µM (active)
